The record followed here is ChEMBL document CHEMBL5291721, “A preclinical secondary pharmacology resource illuminates target-adverse drug reaction associations of marketed drugs” (Nat Commun, 2023).

By AC50 is commonly meant the concentration giving half of the maximal activity seen. Higher therefore signals weaker potency.

Some targets named below: D(1A) dopamine receptor (Homo sapiens, UniProt P21728); Histamine H3 receptor (Homo sapiens, UniProt Q9Y5N1); Mu-type opioid receptor (Homo sapiens, UniProt P35372).
A further assay has as its target Acetylcholinesterase (Homo sapiens, UniProt P22303). It counts as functional.
For assay [1], the target named is T1, Alpha-1A adrenergic receptor (Homo sapiens, UniProt P35348).
T1 sequence (P35348 whole entry): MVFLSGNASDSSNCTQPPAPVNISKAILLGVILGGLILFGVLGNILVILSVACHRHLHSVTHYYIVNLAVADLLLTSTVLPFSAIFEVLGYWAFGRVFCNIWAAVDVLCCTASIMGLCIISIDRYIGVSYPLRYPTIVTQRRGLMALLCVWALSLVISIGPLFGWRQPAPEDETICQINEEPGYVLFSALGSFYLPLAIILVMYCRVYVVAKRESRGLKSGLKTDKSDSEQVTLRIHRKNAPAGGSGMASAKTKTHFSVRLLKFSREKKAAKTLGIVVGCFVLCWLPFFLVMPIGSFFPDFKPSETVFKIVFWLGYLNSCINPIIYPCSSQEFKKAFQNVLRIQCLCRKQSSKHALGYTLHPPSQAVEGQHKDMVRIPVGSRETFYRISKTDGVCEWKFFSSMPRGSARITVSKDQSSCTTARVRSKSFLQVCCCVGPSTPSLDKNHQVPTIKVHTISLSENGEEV
It counts as functional, cell-based.

The target in assay [2] is T1, Alpha-1A adrenergic receptor. It is filed as functional, cell-based. The source holds these as a separate data set.
For another assay, the target named is T2, Estrogen receptor (Homo sapiens, UniProt P03372).
T2 sequence (P03372 whole entry): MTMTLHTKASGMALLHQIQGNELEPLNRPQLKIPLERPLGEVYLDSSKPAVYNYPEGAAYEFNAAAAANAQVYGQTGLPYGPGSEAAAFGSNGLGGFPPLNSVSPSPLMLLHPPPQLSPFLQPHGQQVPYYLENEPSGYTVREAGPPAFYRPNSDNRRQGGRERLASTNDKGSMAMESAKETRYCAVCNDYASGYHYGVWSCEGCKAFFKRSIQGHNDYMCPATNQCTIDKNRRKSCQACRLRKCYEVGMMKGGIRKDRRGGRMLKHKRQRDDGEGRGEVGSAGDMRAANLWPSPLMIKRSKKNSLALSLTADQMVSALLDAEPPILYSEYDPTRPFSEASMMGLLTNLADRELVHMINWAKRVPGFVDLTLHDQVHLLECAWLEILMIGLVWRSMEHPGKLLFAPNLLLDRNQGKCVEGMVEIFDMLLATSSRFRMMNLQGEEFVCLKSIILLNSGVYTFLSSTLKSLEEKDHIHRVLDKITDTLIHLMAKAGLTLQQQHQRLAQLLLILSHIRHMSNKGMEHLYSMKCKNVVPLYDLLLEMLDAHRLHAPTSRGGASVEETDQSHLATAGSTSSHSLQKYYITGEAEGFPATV

The target of assay [3] is T3, 5-hydroxytryptamine receptor 1A (Homo sapiens, UniProt P08908).
T3 sequence (P08908 whole entry): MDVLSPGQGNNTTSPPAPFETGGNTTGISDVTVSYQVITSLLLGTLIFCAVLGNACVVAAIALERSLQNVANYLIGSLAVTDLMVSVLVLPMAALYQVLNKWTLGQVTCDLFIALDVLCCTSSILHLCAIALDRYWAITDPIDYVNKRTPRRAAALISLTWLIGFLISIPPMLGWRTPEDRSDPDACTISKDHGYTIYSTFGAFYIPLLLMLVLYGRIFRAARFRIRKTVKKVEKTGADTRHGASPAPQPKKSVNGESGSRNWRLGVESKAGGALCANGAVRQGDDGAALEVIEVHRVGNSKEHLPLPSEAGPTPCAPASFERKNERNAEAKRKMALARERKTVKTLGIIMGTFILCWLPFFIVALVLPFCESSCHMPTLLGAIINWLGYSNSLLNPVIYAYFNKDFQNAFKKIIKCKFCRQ

For assay [4], the target named is Vascular endothelial growth factor receptor 2 (Homo sapiens, UniProt P35968). It counts as functional.
Assay [5] has as its target T4, Amine oxidase [flavin-containing] A (Homo sapiens, UniProt P21397).
T4 sequence (P21397 whole entry): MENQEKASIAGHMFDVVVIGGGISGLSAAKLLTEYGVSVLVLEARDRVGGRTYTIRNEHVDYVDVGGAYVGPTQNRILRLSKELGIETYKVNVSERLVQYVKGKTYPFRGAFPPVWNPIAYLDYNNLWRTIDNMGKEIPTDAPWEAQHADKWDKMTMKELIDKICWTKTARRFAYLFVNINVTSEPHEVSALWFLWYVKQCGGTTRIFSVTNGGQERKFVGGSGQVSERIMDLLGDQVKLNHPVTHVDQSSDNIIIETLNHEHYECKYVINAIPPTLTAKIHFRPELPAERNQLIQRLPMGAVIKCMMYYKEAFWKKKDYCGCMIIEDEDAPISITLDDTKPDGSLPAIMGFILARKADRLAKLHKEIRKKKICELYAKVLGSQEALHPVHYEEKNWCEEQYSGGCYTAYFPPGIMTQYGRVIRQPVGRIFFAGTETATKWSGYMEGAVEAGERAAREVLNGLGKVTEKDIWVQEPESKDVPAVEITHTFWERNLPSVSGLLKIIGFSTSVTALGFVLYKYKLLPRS
It is filed as functional.

Assay [6] has as its target Prostaglandin G/H synthase 1 (Homo sapiens, UniProt P23219). It counts as functional.
The target in assay [7] is Sodium-dependent noradrenaline transporter (Homo sapiens, UniProt P23975).
Assay [8] addresses Sodium-dependent dopamine transporter (Homo sapiens, UniProt Q01959).
For another assay, the target named is T5, Thromboxane A2 receptor (Homo sapiens, UniProt P21731).
T5 sequence (P21731 whole entry): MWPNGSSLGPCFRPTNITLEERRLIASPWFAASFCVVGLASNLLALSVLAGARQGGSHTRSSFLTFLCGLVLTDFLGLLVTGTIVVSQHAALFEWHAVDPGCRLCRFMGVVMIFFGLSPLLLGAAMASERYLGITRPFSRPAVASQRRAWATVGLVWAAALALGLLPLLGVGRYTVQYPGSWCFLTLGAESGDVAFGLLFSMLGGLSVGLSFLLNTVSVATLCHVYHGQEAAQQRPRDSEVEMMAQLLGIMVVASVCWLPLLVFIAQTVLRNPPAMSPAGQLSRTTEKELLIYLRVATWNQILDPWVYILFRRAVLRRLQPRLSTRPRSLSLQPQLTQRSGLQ
It counts as functional, cell-based.

Structures are written as SMILES. A value given as a limit tells only on which side of the number the result lay.
Further: assay procedure not described here.

Sequence of Histamine H3 receptor (Q9Y5N1 whole entry): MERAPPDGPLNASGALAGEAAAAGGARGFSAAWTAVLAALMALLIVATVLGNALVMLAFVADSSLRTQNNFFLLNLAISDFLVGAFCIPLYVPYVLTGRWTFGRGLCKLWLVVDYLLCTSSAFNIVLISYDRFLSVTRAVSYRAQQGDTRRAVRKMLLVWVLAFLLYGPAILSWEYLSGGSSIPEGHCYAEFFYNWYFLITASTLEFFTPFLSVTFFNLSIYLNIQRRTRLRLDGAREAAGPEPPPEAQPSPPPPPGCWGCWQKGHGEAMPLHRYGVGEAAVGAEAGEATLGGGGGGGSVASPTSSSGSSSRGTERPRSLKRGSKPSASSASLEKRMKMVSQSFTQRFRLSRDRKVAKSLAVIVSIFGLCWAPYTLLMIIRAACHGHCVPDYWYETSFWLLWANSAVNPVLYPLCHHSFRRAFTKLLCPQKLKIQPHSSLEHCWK
Sequence of Prostaglandin G/H synthase 1 (P23219 whole entry): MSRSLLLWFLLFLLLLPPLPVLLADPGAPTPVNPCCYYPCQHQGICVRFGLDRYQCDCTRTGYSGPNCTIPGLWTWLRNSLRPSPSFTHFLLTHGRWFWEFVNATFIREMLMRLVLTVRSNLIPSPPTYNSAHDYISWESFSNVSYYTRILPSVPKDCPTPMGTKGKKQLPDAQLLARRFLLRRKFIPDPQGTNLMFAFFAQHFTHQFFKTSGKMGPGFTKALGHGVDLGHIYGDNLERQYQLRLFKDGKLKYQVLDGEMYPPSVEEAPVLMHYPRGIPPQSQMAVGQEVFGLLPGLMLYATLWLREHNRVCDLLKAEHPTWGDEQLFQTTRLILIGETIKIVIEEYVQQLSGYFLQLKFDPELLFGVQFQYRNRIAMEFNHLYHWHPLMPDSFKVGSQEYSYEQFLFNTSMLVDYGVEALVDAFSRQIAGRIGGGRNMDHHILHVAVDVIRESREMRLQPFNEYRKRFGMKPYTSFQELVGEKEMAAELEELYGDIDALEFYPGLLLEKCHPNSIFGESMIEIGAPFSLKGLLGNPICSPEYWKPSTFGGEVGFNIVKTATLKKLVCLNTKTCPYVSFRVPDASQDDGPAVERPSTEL
Sequence of Acetylcholinesterase (P22303 whole entry): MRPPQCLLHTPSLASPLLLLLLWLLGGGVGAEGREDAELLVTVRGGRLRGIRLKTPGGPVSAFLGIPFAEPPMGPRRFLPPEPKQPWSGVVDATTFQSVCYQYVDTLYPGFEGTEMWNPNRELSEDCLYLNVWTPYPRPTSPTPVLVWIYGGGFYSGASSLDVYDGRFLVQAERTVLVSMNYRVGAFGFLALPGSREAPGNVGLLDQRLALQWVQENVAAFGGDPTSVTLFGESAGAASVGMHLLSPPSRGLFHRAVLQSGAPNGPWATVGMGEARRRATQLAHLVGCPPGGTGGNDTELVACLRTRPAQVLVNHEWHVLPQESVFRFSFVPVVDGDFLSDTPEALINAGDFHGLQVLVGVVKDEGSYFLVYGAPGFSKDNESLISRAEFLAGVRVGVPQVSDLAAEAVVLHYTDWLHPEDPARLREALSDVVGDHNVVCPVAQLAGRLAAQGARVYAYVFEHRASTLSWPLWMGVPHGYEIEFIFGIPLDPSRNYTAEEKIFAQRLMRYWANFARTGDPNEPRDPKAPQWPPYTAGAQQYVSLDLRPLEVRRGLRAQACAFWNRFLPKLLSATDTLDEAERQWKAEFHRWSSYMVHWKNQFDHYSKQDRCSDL
Sequence of D(1A) dopamine receptor (P21728 whole entry): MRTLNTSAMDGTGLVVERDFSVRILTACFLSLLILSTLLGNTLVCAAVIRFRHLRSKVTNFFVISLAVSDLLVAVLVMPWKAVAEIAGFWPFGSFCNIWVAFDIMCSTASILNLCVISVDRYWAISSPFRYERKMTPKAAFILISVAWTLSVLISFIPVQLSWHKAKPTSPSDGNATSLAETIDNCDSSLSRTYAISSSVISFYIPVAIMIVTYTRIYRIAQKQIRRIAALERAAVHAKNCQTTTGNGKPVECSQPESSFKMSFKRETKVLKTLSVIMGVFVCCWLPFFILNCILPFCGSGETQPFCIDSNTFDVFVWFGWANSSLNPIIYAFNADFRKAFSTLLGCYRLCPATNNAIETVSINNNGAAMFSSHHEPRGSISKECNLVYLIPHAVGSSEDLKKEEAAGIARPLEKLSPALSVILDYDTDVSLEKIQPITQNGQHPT
Sequence of Mu-type opioid receptor (P35372 whole entry): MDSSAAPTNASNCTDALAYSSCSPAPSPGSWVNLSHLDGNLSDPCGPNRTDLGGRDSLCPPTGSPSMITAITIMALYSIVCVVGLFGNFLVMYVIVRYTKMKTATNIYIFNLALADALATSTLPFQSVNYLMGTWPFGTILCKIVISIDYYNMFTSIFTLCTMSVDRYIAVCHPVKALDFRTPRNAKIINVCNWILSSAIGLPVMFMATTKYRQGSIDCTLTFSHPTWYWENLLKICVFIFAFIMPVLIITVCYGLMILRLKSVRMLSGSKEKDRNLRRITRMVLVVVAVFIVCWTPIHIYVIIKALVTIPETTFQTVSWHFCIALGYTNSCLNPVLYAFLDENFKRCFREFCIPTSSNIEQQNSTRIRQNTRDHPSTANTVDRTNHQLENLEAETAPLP
Sequence of Vascular endothelial growth factor receptor 2 (P35968 whole entry): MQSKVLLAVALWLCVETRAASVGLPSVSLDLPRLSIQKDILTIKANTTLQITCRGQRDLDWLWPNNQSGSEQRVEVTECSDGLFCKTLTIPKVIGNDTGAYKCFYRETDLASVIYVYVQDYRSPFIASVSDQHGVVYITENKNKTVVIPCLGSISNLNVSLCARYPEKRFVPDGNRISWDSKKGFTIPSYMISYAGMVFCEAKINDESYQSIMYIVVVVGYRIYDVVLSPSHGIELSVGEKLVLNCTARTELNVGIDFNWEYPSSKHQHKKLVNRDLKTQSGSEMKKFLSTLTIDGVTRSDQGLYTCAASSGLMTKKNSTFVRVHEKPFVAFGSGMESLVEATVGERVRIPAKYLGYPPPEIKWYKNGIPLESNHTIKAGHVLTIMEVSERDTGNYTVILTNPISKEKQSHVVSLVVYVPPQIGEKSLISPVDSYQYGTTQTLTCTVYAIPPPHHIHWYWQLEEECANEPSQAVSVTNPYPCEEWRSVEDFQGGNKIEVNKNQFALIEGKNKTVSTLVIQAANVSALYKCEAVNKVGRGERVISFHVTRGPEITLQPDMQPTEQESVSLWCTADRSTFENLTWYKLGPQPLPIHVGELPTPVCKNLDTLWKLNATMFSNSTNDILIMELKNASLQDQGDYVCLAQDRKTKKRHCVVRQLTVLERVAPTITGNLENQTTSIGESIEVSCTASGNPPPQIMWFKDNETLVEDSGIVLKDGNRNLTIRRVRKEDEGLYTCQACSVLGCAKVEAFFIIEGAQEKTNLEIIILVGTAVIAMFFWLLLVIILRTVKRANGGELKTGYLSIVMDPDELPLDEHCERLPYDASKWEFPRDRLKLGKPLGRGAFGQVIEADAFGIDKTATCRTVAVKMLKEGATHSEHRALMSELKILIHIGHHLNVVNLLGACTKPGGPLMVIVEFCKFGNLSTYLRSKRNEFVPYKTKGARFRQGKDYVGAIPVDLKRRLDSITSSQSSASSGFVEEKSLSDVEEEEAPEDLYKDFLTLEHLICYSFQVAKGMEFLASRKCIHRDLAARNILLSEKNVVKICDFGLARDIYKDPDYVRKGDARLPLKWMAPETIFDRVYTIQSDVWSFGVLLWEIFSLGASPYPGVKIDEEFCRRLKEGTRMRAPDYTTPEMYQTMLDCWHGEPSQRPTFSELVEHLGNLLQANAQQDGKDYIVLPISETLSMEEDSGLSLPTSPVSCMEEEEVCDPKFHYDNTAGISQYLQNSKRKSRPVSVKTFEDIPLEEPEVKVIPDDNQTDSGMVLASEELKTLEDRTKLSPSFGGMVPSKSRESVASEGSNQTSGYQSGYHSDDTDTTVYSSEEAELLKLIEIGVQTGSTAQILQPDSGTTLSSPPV
Sequence of Sodium-dependent dopamine transporter (Q01959 whole entry): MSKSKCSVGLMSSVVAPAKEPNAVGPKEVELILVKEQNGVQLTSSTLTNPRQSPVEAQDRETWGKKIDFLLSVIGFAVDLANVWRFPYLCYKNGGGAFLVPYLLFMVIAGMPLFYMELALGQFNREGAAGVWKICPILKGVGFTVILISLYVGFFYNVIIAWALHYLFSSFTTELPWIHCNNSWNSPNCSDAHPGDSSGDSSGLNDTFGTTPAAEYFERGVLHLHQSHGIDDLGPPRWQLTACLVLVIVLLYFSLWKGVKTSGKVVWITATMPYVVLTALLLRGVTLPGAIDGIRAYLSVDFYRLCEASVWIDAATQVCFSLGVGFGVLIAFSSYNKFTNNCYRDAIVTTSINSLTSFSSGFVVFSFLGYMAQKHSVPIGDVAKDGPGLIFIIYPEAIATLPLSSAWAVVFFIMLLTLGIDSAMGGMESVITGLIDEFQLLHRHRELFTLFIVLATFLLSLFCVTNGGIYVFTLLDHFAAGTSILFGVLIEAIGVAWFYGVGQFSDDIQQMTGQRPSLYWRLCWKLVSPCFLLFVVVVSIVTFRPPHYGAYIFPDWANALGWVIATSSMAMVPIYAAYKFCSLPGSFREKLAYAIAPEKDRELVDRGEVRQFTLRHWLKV

In the case of `CC(C)(Oc1ccc(C(=O)c2ccc(Cl)cc2)cc1)C(=O)O` [FENOFIBRIC ACID], the AC50 (at Acetylcholinesterase; in assay [1]; in assay [2]; on D(1A) dopamine receptor; on Estrogen receptor; at Histamine H3 receptor) was above 30 µM each time. Moreover, the AC50 (in [3]; in assay [4]; in assay [5]; on Mu-type opioid receptor; in assay [6]; in [7]) was above 30 µM throughout. The AC50 (in assay [8]; on Thromboxane A2 receptor) was above 30 µM each time.
Regarding `Cc1ccc(Cl)c(Nc2ccccc2C(=O)O)c1Cl` [MECLOFENAMIC ACID], the AC50 (at Acetylcholinesterase; in assay [1]; in assay [2]; on D(1A) dopamine receptor; on Estrogen receptor; at Histamine H3 receptor) was above 30 µM in each case. For the same molecule, the AC50 in assay [3] is above 30 µM; in [4], above 30 µM; in [5], above 30 µM; at Mu-type opioid receptor it was above 30 µM; in [6] it was 0.0142 µM; in assay [7], above 30 µM. In addition, the AC50 (in [8]; on Thromboxane A2 receptor) was above 30 µM in each case.
Turning to `Nc1ccc(C(=O)NCC(=O)O)cc1` [AMINOHIPPURIC ACID], the AC50 (on Acetylcholinesterase; in assay [1]; in assay [2]; on D(1A) dopamine receptor; at Estrogen receptor; at Histamine H3 receptor) was above 30 µM in each case. For the same molecule, the AC50 (in assay [3]; in [4]; in assay [5]; at Mu-type opioid receptor; in assay [6]; in assay [7]) was above 30 µM each time. For the same molecule, the AC50 (in [8]; on Thromboxane A2 receptor) was above 30 µM in each case.
For `CC(NCCC(c1ccccc1)c1ccccc1)c1ccccc1` (stereo unspecified) [FENDILINE], the AC50 was above 30 µM on Acetylcholinesterase; 25.8 µM in assay [1]; 21.7 µM on D(1A) dopamine receptor; above 30 µM at Estrogen receptor; above 30 µM on Histamine H3 receptor; 14.9 µM in [3]. In addition, the AC50 in assay [4] is above 30 µM; in [5], above 30 µM; at Mu-type opioid receptor it was 0.721 µM; in assay [6] it was above 30 µM; in assay [7], 3.26 µM; in assay [8] it was 3.48 µM. At Thromboxane A2 receptor, this molecule registered an AC50 of 20.7 µM.
For `COc1cc(C[C@@H]2NCCc3cc(O)c(O)cc32)cc(OC)c1OC` [TRETOQUINOL], the AC50 on Acetylcholinesterase was above 30 µM; in assay [1] it was above 30 µM; in assay [2], above 30 µM; on D(1A) dopamine receptor, 4.72 µM; on Estrogen receptor, above 30 µM; at Histamine H3 receptor it was above 30 µM. The AC50 in assay [3] is 7.31 µM; in assay [4], above 30 µM; in assay [5], above 30 µM; at Mu-type opioid receptor it was 15.5 µM; in [6], above 30 µM; in [7], above 30 µM. The AC50 in [8] is above 30 µM.
In the case of `C[C@H]1C[C@H]2[C@@H]3CCC4=CC(=O)C=C[C@]4(C)[C@@]3(F)[C@@H](O)C[C@]2(C)[C@@]1(O)C(=O)CO` [BETAMETHASONE], the AC50 (at Acetylcholinesterase; in assay [1]; in assay [2]; on D(1A) dopamine receptor; at Histamine H3 receptor; in assay [3]) was above 30 µM in each case. Moreover, the concentration at half-maximal activity (AC50) (in assay [4]; in [5]; at Mu-type opioid receptor; in assay [6]; in assay [7]; in [8]) was above 30 µM in each case. The same molecule showed a concentration at half-maximal activity (AC50) at Thromboxane A2 receptor above 30 µM.
Consider `Nc1ccn(C[C@@H](CO)OCP(=O)(O)O)c(=O)n1` [CIDOFOVIR], for which the AC50 (on Acetylcholinesterase; in assay [1]; in assay [2]; at D(1A) dopamine receptor; on Histamine H3 receptor; in [3]) was above 30 µM in each case. Besides, the half-maximal activity concentration (AC50) (in assay [4]; in assay [5]; at Mu-type opioid receptor; in assay [6]; in [7]; in assay [8]) was above 30 µM throughout. This molecule returned an AC50 at Thromboxane A2 receptor above 30 µM.
Take `N[C@@H](Cc1ccc(N(CCCl)CCCl)cc1)C(=O)O`: the AC50 at Acetylcholinesterase is 20 µM; in assay [1] it was above 30 µM; in assay [2] it was above 30 µM; on D(1A) dopamine receptor it was above 30 µM; on Histamine H3 receptor, above 30 µM; in assay [3] it was above 30 µM. For the same molecule, the AC50 is above 30 µM in assay [4]; above 30 µM in [5]; 20.6 µM at Mu-type opioid receptor; above 30 µM in [6]; above 30 µM in assay [7]; 16.9 µM in assay [8]. Besides, the AC50 on Thromboxane A2 receptor was above 30 µM.
For the molecule `Cc1cccc(C)c1NC(=O)CN(CC(=O)O)CC(=O)O` [LIDOFENIN], the AC50 (on Acetylcholinesterase; in [1]; in assay [2]; on D(1A) dopamine receptor; at Histamine H3 receptor; in assay [3]) was above 30 µM throughout. The AC50 (in assay [4]; in assay [5]; at Mu-type opioid receptor; in assay [6]; in assay [7]; in assay [8]) was above 30 µM each time. In addition, at Thromboxane A2 receptor, the concentration at half-maximal activity (AC50) is above 30 µM.
Consider `CC(CN(C)C)CN1c2ccccc2CCc2ccccc21` (stereo unspecified) [TRIMIPRAMINE], for which the AC50 is above 30 µM at Acetylcholinesterase; above 30 µM at Estrogen receptor; above 30 µM at Histamine H3 receptor; 20.1 µM in [3]; above 30 µM in assay [4]; above 30 µM in [5]. Moreover, the AC50 was 5.7 µM at Mu-type opioid receptor; above 30 µM in assay [6]; 18.5 µM in assay [7]; 10.9 µM in assay [8]; 9.64 µM at Thromboxane A2 receptor.
